pIC50: −log10 of the molar value.
Test system: MDA-MB-231 multicell spheroids, viability
Test: Anticancer human tumor MDA-MB-231 cell line growth inhibition [PI3K];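 note: spheroids exposed to agents for seven days before reading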;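 for viability, T/C: percent of vehicle control luminescence with DMSO treated spheroids as 100%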
Conditions: for pIC50: curve of first compound; for viability, T/C: stronger effect = lower value
How it was run: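 Spheroid viability read-out. Co-cultures contained the tumor line plus HUVEC and human MSCs. Each agent was paired with a PI3K inhibitor (inavolisib, alpelisib, duvelisib, copanlisib) across half-log dilutions starting at clinical Cmax, or at 10 microM when Cmax was unknown.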

How did the pIC50 (second compound 0.0316 µM) turn out when `CC(C)NCC(C(=O)N1CCN(c2ncnc3c2C(C)CC3O)CC1)c1ccc(Cl)cc1` (configuration not stated) + CC(Nc1ncnc2nc[nH]c12)c1cc2cccc(Cl)c2c(=O)n1-c1ccccc1 was run?
The pIC50 was 5.06.

And the pIC50 (second compound 0.1 µM)?
The pIC50 was 5.06.

What about the pIC50 (second compound 0.316 µM) of the same molecule?
The pIC50 was 5.19.

What about the pIC50 (second compound 1 µM) of the same molecule?
Its pIC50 is 5.25.

What about the pIC50 (second compound 3.16 µM) of the same molecule?
The pIC50 was 5.73.

And the pIC50 (second compound 10 µM)?
Its pIC50 is 7.02.

And the viability, T/C (second compound 0.0316 µM, first compound 0.0316 µM)?
Its viability, T/C is 103%.

And the viability, T/C (second compound 0.0316 µM, first compound 0.1 µM)?
The viability, T/C was 98%.

What about the viability, T/C (second compound 0.0316 µM, first compound 0.316 µM) of the same molecule?
Its viability, T/C is 97.1%.

And the viability, T/C (second compound 0.0316 µM, first compound 1 µM)?
The viability, T/C was 91%.

What about the viability, T/C (second compound 0.0316 µM, first compound 3.16 µM) of the same molecule?
Its viability, T/C is 64.3%.

And the viability, T/C (second compound 0.0316 µM, first compound 10 µM)?
The viability, T/C was 47.9%.

And the viability, T/C (second compound 0.1 µM, first compound 0.0316 µM)?
The viability, T/C was 106%.

What about the viability, T/C (second compound 0.1 µM, first compound 0.1 µM) of the same molecule?
Its viability, T/C is 88.5%.

And the viability, T/C (second compound 0.1 µM, first compound 0.316 µM)?
Its viability, T/C is 91.8%.

What about the viability, T/C (second compound 0.1 µM, first compound 1 µM) of the same molecule?
The viability, T/C was 82.2%.

What about the viability, T/C (second compound 0.1 µM, first compound 3.16 µM) of the same molecule?
The viability, T/C was 66.3%.

What about the viability, T/C (second compound 0.1 µM, first compound 10 µM) of the same molecule?
The viability, T/C was 46.8%.

And the viability, T/C (second compound 0.316 µM, first compound 0.0316 µM)?
The viability, T/C was 86%.

And the viability, T/C (second compound 0.316 µM, first compound 0.1 µM)?
Its viability, T/C is 102%.

And the viability, T/C (second compound 0.316 µM, first compound 0.316 µM)?
The viability, T/C was 86.8%.

What about the viability, T/C (second compound 0.316 µM, first compound 1 µM) of the same molecule?
The viability, T/C was 77.9%.

What about the viability, T/C (second compound 0.316 µM, first compound 3.16 µM) of the same molecule?
The viability, T/C was 62.1%.

What about the viability, T/C (second compound 0.316 µM, first compound 10 µM) of the same molecule?
Its viability, T/C is 43%.

What about the viability, T/C (second compound 1 µM, first compound 0.0316 µM) of the same molecule?
Its viability, T/C is 92.1%.

And the viability, T/C (second compound 1 µM, first compound 0.1 µM)?
Its viability, T/C is 82.3%.

What about the viability, T/C (second compound 1 µM, first compound 0.316 µM) of the same molecule?
Its viability, T/C is 76.5%.

And the viability, T/C (second compound 1 µM, first compound 1 µM)?
Its viability, T/C is 65.9%.

What about the viability, T/C (second compound 1 µM, first compound 3.16 µM) of the same molecule?
The viability, T/C was 55.2%.

And the viability, T/C (second compound 1 µM, first compound 10 µM)?
The viability, T/C was 44.3%.

And the viability, T/C (second compound 3.16 µM, first compound 0.0316 µM)?
Its viability, T/C is 63.5%.

And the viability, T/C (second compound 3.16 µM, first compound 0.1 µM)?
The viability, T/C was 62.1%.

What about the viability, T/C (second compound 3.16 µM, first compound 0.316 µM) of the same molecule?
Its viability, T/C is 63%.

What about the viability, T/C (second compound 3.16 µM, first compound 1 µM) of the same molecule?
The viability, T/C was 51.6%.

And the viability, T/C (second compound 3.16 µM, first compound 3.16 µM)?
The viability, T/C was 45.3%.

And the viability, T/C (second compound 3.16 µM, first compound 10 µM)?
The viability, T/C was 39.1%.

What about the viability, T/C (second compound 10 µM, first compound 0.0316 µM) of the same molecule?
The viability, T/C was 52.5%.

And the viability, T/C (second compound 10 µM, first compound 0.1 µM)?
The viability, T/C was 48.6%.

What about the viability, T/C (second compound 10 µM, first compound 0.316 µM) of the same molecule?
Its viability, T/C is 49.3%.

And the viability, T/C (second compound 10 µM, first compound 1 µM)?
The viability, T/C was 40.7%.

What about the viability, T/C (second compound 10 µM, first compound 3.16 µM) of the same molecule?
The viability, T/C was 37.9%.

What about the viability, T/C (second compound 10 µM, first compound 10 µM) of the same molecule?
Its viability, T/C is 31.8%.

— PubChem BioAssay AID1963958 (Molecular Pharmacology Branch, DTP, NCI, 2024)
